In PubChem BioAssay AID1918934 (Molecular Pharmacology Branch, DTP, NCI, 2023):
pIC50: −log10 of the molar value.

Tested on: 292921-168-R-J2-PDC complex spheroid viability
Assay: Anticancer human tumor 292921-168-R-J2-PDC patient-derived pancreatic carcinoma cell line growth inhibition
Conditions: for pIC50: curve of first compound; for viability, T/C: stronger effect = lower value
Outline: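 Complex spheroids of tumor cells with HUVEC and human MSCs, exposed to iadademstat combined with other agents. Each agent tested in half-log steps from near clinical Cmax (else 10 microM top), DMSO ≤0.25%.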

[1] = second compound 0.1 µM, first compound 0.0316 µM
[2] = second compound 0.1 µM, first compound 0.1 µM
[3] = second compound 0.1 µM, first compound 0.316 µM
[4] = second compound 0.1 µM, first compound 1 µM
[5] = second compound 0.1 µM, first compound 3.16 µM
[6] = second compound 0.1 µM, first compound 10 µM
[7] = second compound 0.316 µM, first compound 0.0316 µM
[8] = second compound 0.316 µM, first compound 0.1 µM
[9] = second compound 0.316 µM, first compound 0.316 µM
[10] = second compound 0.316 µM, first compound 1 µM
[11] = second compound 0.316 µM, first compound 3.16 µM
[12] = second compound 0.316 µM, first compound 10 µM
[13] = second compound 1 µM, first compound 0.0316 µM
[14] = second compound 1 µM, first compound 0.1 µM
[15] = second compound 1 µM, first compound 0.316 µM
[16] = second compound 1 µM, first compound 1 µM
[17] = second compound 1 µM, first compound 3.16 µM
[18] = second compound 1 µM, first compound 10 µM
[19] = second compound 3.16 µM, first compound 0.0316 µM
[20] = second compound 3.16 µM, first compound 0.1 µM
[21] = second compound 3.16 µM, first compound 0.316 µM
[22] = second compound 3.16 µM, first compound 1 µM
[23] = second compound 3.16 µM, first compound 3.16 µM
[24] = second compound 3.16 µM, first compound 10 µM
[25] = second compound 10 µM, first compound 0.0316 µM
[26] = second compound 10 µM, first compound 0.1 µM
[27] = second compound 10 µM, first compound 0.316 µM
[28] = second compound 10 µM, first compound 1 µM
[29] = second compound 10 µM, first compound 3.16 µM
[30] = second compound 10 µM, first compound 10 µM
[31] = second compound 0.1 µM, first compound 0.00316 µM
[32] = second compound 0.1 µM, first compound 0.01 µM
[33] = second compound 0.316 µM, first compound 0.00316 µM
[34] = second compound 0.316 µM, first compound 0.01 µM
[35] = second compound 1 µM, first compound 0.00316 µM
[36] = second compound 1 µM, first compound 0.01 µM
[37] = second compound 3.16 µM, first compound 0.00316 µM
[38] = second compound 3.16 µM, first compound 0.01 µM
[39] = second compound 10 µM, first compound 0.00316 µM
[40] = second compound 10 µM, first compound 0.01 µM
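Further: seven day compound exposure before luminescent viability read.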
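Wherever viability, T/C is given: 100% = DMSO vehicle control wells.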

**Q.** Which results are given for `CC(C)c1c(-c2ccccc2)nc2c(C#N)c[nH]n2c1=O` + NC1CC1c1ccc(-c2cccc(O)c2)cc1?
**A.** pIC50 (second compound 0.1 µM): < 5.00; pIC50 (second compound 0.316 µM): < 5.00; pIC50 (second compound 1 µM): < 5.00; pIC50 (second compound 3.16 µM): < 5.00; pIC50 (second compound 10 µM): < 5.00; viability, T/C [1]: 79.9%; viability, T/C [2]: 84%; viability, T/C [3]: 82%; viability, T/C [4]: 70.7%; viability, T/C [5]: 78.4%; viability, T/C [6]: 66%; viability, T/C [7]: 81.7%; viability, T/C [8]: 73%; viability, T/C [9]: 80.7%; viability, T/C [10]: 69.5%; viability, T/C [11]: 71.4%; viability, T/C [12]: 60.4%; viability, T/C [13]: 71.8%; viability, T/C [14]: 68.9%; viability, T/C [15]: 66.8%; viability, T/C [16]: 66.2%; viability, T/C [17]: 61.1%; viability, T/C [18]: 55.7%; viability, T/C [19]: 58.6%; viability, T/C [20]: 65.3%; viability, T/C [21]: 64.4%; viability, T/C [22]: 57.9%; viability, T/C [23]: 52.2%; viability, T/C [24]: 59.6%; viability, T/C [25]: 58.1%; viability, T/C [26]: 53.2%; viability, T/C [27]: 58.4%; viability, T/C [28]: 53.7%; viability, T/C [29]: 49.8%; viability, T/C [30]: 52.2%

**Q.** How did the pIC50 (second compound 0.1 µM) turn out when `CC1COCCN1c1cc(-c2ccnn2C)c2ccnc(-c3ccn[nH]3)c2n1` (stereo not given) + NC1CC1c1ccc(-c2cccc(O)c2)cc1 was run?
**A.** The pIC50 was over 8.50.

**Q.** And the pIC50 (second compound 0.316 µM)?
**A.** The pIC50 was over 8.50.

**Q.** What about the pIC50 (second compound 1 µM) of the same molecule?
**A.** Its pIC50 is over 8.50.

**Q.** What about the pIC50 (second compound 3.16 µM) of the same molecule?
**A.** The pIC50 was over 8.50.

**Q.** And the pIC50 (second compound 10 µM)?
**A.** Its pIC50 is over 8.50.

**Q.** And the viability, T/C [31]?
**A.** Its viability, T/C is 16.9%.

**Q.** And the viability, T/C [32]?
**A.** Its viability, T/C is 15.3%.

**Q.** What about the viability, T/C [1] of the same molecule?
**A.** Its viability, T/C is 14.2%.

**Q.** And the viability, T/C [2]?
**A.** Its viability, T/C is 15.7%.

**Q.** And the viability, T/C [3]?
**A.** The viability, T/C was 16.2%.

**Q.** What about the viability, T/C [4] of the same molecule?
**A.** The viability, T/C was 17.7%.

**Q.** What about the viability, T/C [33] of the same molecule?
**A.** Its viability, T/C is 17.2%.

**Q.** What about the viability, T/C [34] of the same molecule?
**A.** Its viability, T/C is 14.9%.

**Q.** What about the viability, T/C [7] of the same molecule?
**A.** Its viability, T/C is 13.2%.

**Q.** What about the viability, T/C [8] of the same molecule?
**A.** The viability, T/C was 14.3%.

**Q.** What about the viability, T/C [9] of the same molecule?
**A.** Its viability, T/C is 15.9%.

**Q.** What about the viability, T/C [10] of the same molecule?
**A.** The viability, T/C was 16.7%.

**Q.** And the viability, T/C [35]?
**A.** The viability, T/C was 17.7%.

**Q.** What about the viability, T/C [36] of the same molecule?
**A.** Its viability, T/C is 15.4%.

**Q.** What about the viability, T/C [13] of the same molecule?
**A.** The viability, T/C was 14.1%.

**Q.** What about the viability, T/C [14] of the same molecule?
**A.** Its viability, T/C is 12.7%.

**Q.** What about the viability, T/C [15] of the same molecule?
**A.** The viability, T/C was 16.8%.

**Q.** What about the viability, T/C [16] of the same molecule?
**A.** The viability, T/C was 20.3%.

**Q.** What about the viability, T/C [37] of the same molecule?
**A.** The viability, T/C was 15.2%.

**Q.** What about the viability, T/C [38] of the same molecule?
**A.** The viability, T/C was 15.4%.

**Q.** What about the viability, T/C [19] of the same molecule?
**A.** Its viability, T/C is 14.7%.

**Q.** What about the viability, T/C [20] of the same molecule?
**A.** Its viability, T/C is 13.7%.

**Q.** And the viability, T/C [21]?
**A.** The viability, T/C was 14.9%.

**Q.** What about the viability, T/C [22] of the same molecule?
**A.** Its viability, T/C is 17%.

**Q.** What about the viability, T/C [39] of the same molecule?
**A.** Its viability, T/C is 15.1%.

**Q.** And the viability, T/C [40]?
**A.** The viability, T/C was 14.6%.

**Q.** What about the viability, T/C [25] of the same molecule?
**A.** The viability, T/C was 14.6%.

**Q.** And the viability, T/C [26]?
**A.** Its viability, T/C is 13.5%.

**Q.** What about the viability, T/C [27] of the same molecule?
**A.** The viability, T/C was 15.1%.

**Q.** And the viability, T/C [28]?
**A.** The viability, T/C was 17.1%.

**Q.** Which results are given for `COc1ccc([C@@H](O)c2cc(-c3ncnc4cc(N5CCOCC5)ccc34)c(F)cc2Cl)nn1` + NC1CC1c1ccc(-c2cccc(O)c2)cc1?
**A.** pIC50 (second compound 0.1 µM): 6.39; pIC50 (second compound 0.316 µM): 6.57; pIC50 (second compound 1 µM): 6.80; pIC50 (second compound 3.16 µM): 6.88; pIC50 (second compound 10 µM): > 7.50; viability, T/C [1]: 73.1%; viability, T/C [2]: 73.9%; viability, T/C [3]: 53.5%; viability, T/C [4]: 30.8%; viability, T/C [5]: 20.9%; viability, T/C [6]: 10.5%; viability, T/C [7]: 72.5%; viability, T/C [8]: 69.6%; viability, T/C [9]: 44.4%; viability, T/C [10]: 28.2%; viability, T/C [11]: 18.2%; viability, T/C [12]: 10.7%; viability, T/C [13]: 57.7%; viability, T/C [14]: 56.9%; viability, T/C [15]: 41.9%; viability, T/C [16]: 28.1%; viability, T/C [17]: 18%; viability, T/C [18]: 11.3%; viability, T/C [19]: 54.9%; viability, T/C [20]: 55.8%; viability, T/C [21]: 38.8%; viability, T/C [22]: 23.4%; viability, T/C [23]: 16.8%; viability, T/C [24]: 11.5%; viability, T/C [25]: 44.6%; viability, T/C [26]: 43.3%; viability, T/C [27]: 30%; viability, T/C [28]: 20.8%; viability, T/C [29]: 15.5%; viability, T/C [30]: 12.2%

**Q.** Which results are given for `O=C(C=Cn1cnc(-c2cc(C(F)(F)F)cc(C(F)(F)F)c2)n1)NNc1cnccn1` + NC1CC1c1ccc(-c2cccc(O)c2)cc1?
**A.** pIC50 (second compound 0.1 µM): 8.49; pIC50 (second compound 0.316 µM): 8.47; pIC50 (second compound 1 µM): > 8.50; pIC50 (second compound 3.16 µM): 8.34; pIC50 (second compound 10 µM): 8.42; viability, T/C [31]: 48.3%; viability, T/C [32]: 49.7%; viability, T/C [1]: 26.2%; viability, T/C [2]: 12.7%; viability, T/C [3]: 7.08%; viability, T/C [4]: 6.49%; viability, T/C [33]: 50%; viability, T/C [34]: 45%; viability, T/C [7]: 22.3%; viability, T/C [8]: 11.1%; viability, T/C [9]: 7.37%; viability, T/C [10]: 6.26%; viability, T/C [35]: 47.8%; viability, T/C [36]: 42.7%; viability, T/C [13]: 23%; viability, T/C [14]: 11.8%; viability, T/C [15]: 6.36%; viability, T/C [16]: 6.66%; viability, T/C [37]: 51.8%; viability, T/C [38]: 46%; viability, T/C [19]: 24%; viability, T/C [20]: 14.4%; viability, T/C [21]: 7.81%; viability, T/C [22]: 7.38%; viability, T/C [39]: 50.7%; viability, T/C [40]: 46.3%; viability, T/C [25]: 33.5%; viability, T/C [26]: 17.6%; viability, T/C [27]: 9.43%; viability, T/C [28]: 8.53%

**Q.** Which results are given for `Nc1ncn(C2CC(O)C(CO)O2)c(=O)n1` (stereo not given) + NC1CCC(NC2CC2c2ccccc2)CC1?
**A.** pIC50 (second compound 0.1 µM): 6.55; pIC50 (second compound 0.316 µM): 6.99; pIC50 (second compound 1 µM): 7.19; pIC50 (second compound 3.16 µM): 6.98; pIC50 (second compound 10 µM): 7.39; viability, T/C [31]: 63.8%; viability, T/C [32]: 70.5%; viability, T/C [1]: 62.2%; viability, T/C [2]: 49.6%; viability, T/C [3]: 50.2%; viability, T/C [4]: 44.2%; viability, T/C [33]: 67%; viability, T/C [34]: 69%; viability, T/C [7]: 61.5%; viability, T/C [8]: 49.8%; viability, T/C [9]: 46.6%; viability, T/C [10]: 42.6%; viability, T/C [35]: 59.7%; viability, T/C [36]: 58.6%; viability, T/C [13]: 52.8%; viability, T/C [14]: 45.2%; viability, T/C [15]: 47%; viability, T/C [16]: 42.7%; viability, T/C [37]: 54.8%; viability, T/C [38]: 53.9%; viability, T/C [19]: 55.1%; viability, T/C [20]: 52.3%; viability, T/C [21]: 41.3%; viability, T/C [22]: 35.6%; viability, T/C [39]: 53.1%; viability, T/C [40]: 57.4%; viability, T/C [25]: 49.3%; viability, T/C [26]: 45.8%; viability, T/C [27]: 36%; viability, T/C [28]: 35.4%
